Experimental data taken from patent US20250100996A1, “HETEROCYCLOALKYL AND HETEROARYL COMPOUNDS AND PHARMACEUTICAL COMPOSITIONS THAT MODULATE IKZF2” (Plexium, Inc., priority 2021, published 2025).

Tests used:
[1] = molecular target: T1, IKZF1 (Ikaros) (Homo sapiens, UniProt Q13422); experiment: IKZF1 reporter degradation assay (HEK 293T IKZF1-mNeonGreen reporter cell line); format: cell-based; settings: HEK 293T IKZF1-mNeonGreen reporter, 24 hours incubation
T1 construct: mScarlet (behind P2A) (C, cleaved yes); expressed in transfected cells
From the text: Polycistronic plasmids were constructed for the mammalian expression of fluorescent reporter fusions of human transcription factors IKZF1 (Ikaros), IKZF2 (Helios), and IKZF3 (Aiolos). The respective protein sequences had their C-terminal end joined to a GGGGS linker repeated three times followed by mNeonGreen, P2A sequence, and mScarlet. The DNA sequences of the open reading frames are as follows:
IKZF1, IKZF2, and IKZF3 constructs were cloned into the UCOE Hygromycin expression vectors (Millipore Sigma). Reporter constructs were transfected using cationic lipid reagents into adherent HEK 293T cells and stable integrants were selected by treatment with 200 μg/mL hygromycin B. Clonal populations were obtained from the population of stable integrants either by limiting dilution or fluorescence activated cell sorting.
The clonal stable cell lines were maintained under constant 200 μg/mL hygromycin B selection while being passaged for use in the degradation assays. […] The fluorescence intensity of the IKZF1/2/3-mNeonGreen (FITC channel) and mScarlet (PE channel) reporters were routinely analyzed by flow cytometry to confirm consistent expression levels between experiments.
The IKZF1/IKZF2/IKZF3 degradation assays were carried out by harvesting the HEK 293T reporter cell lines and resuspending the cells in media formulated for reduced background fluorescence (FluoroBrite; Thermo Fisher). The respective cell lines were seeded at a density of 4000 cells/well into black-walled 384-well optical grade assay tissue culture plates. The cells were incubated overnight at 37° C. to allow for attachment to the assay plate. Dilutions of the compounds were prepared in DMSO from 10 mM compound stocks. The assay plates were treated with appropriate concentrations of the compounds by dispensing the DMSO dilutions in quadruplicate wells with an upper limit of 0.5% final DMSO.
After 24 hours incubation with the compounds, the assay plates were imaged on an ImageXpress Pico microscopy system (cells maintained at 37° C. during imaging) to obtain the fluorescent readouts. The assay plates were imaged in the FITC and Tetramethylrhodamine (TRITC) channels to obtain the mNeonGreen fluorescence intensity (reporter degradation data) and mScarlet fluorescence intensity (for cell segmentation). 293T-IKZF1 and 293T-IKZF3 reporter cell lines were imaged with exposures of 500 milliseconds (ms) for both FITC and TRITC channels, while the 293T-IKZF2 reporter cell line was imaged with exposures of 1000 ms for FITC and 1250 ms for TRITC. The resulting data was analyzed with Cell Reporter Xpress software using the 2-channel cell scoring analysis with a “percent positive” readout. The TRITC channel was selected for the “nuclei” segmentation with a threshold of 20 while the FITC channel was selected for the “Marker 1” segmentation and a threshold of 100 for the IKZF1 and IKZF3 reporter lines. […] The minimum segmentation width was set to 6 micrometers and the maximum segmentation width was set to 15 micrometers for all cell lines. The DC50 calculations were determined by regression to best fit four-parameter logistic curves using GraphPad Prism.

[2] = molecular target: T2, human E3 ligase component cereblon (CRBN) (Homo sapiens, UniProt Q96SW2); experiment: Cereblon (CRBN) target engagement, NanoBRET TE Intracellular E3 Ligase Assay in transfected HEK-293T cells; settings: read-out: CRBN Binding EC50
T2 construct: host or cells: HEK293T
In short: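 Tracer displacement was read as the 610/450 nm BRET signal after 2 h at 37° C with an 11-point dilution series, typically 10 μM to 100 pM. Live HEK-293T cells expressed NanoLuc fused N-terminal to human CRBN together with DDB1. IC50 was fitted with a four-parameter logistic model.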

[3] = molecular target: T3, IKZF3 (Aiolos) (Homo sapiens, UniProt Q9UKT9); experiment: IKZF3 reporter degradation assay (HEK 293T IKZF3-mNeonGreen reporter cell line); format: cell-based; settings: HEK 293T IKZF3-mNeonGreen reporter, 24 hours incubation
T3 construct: Leu-Asp junction (codons ctcgac before the linker); mScarlet (behind P2A) (C, cleaved yes); expressed in transfected cells
In short: (§1)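 Cells were seeded overnight and then dosed with DMSO dilutions of compound. After 24 h, the plates were imaged live in the FITC and TRITC channels. The fraction of reporter-positive cells was plotted and fitted to a four-parameter logistic curve to give DC50.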

[4] = molecular target: T4, IKZF2 (Helios) (Homo sapiens, UniProt Q9UKS7); experiment: IKZF2 reporter degradation assay (HEK 293T IKZF2-mNeonGreen reporter cell line); format: cell-based; settings: HEK 293T IKZF2-mNeonGreen reporter, 24 hours incubation
T4 construct: Leu-Asp junction (codons ctcgac before the linker); mScarlet (behind P2A) (C, cleaved yes); expressed in transfected cells
In short: as §1

[5] = molecular target: T5, IKZF2 (Helios) (Homo sapiens, UniProt Q96SW2+Q9UKS7); experiment: as above; format: cell-based; settings: @ 1 μM, HEK 293T IKZF2-mNeonGreen reporter, 24 hours incubation; for inhibition at 1 µM: HEK-293T, 24 h
T5 construct: Leu-Asp junction (codons ctcgac before the linker); mScarlet (behind P2A) (C, cleaved yes); expressed in transfected cells
In short: as §1

T3 sequence (Q96SW2 whole entry partner): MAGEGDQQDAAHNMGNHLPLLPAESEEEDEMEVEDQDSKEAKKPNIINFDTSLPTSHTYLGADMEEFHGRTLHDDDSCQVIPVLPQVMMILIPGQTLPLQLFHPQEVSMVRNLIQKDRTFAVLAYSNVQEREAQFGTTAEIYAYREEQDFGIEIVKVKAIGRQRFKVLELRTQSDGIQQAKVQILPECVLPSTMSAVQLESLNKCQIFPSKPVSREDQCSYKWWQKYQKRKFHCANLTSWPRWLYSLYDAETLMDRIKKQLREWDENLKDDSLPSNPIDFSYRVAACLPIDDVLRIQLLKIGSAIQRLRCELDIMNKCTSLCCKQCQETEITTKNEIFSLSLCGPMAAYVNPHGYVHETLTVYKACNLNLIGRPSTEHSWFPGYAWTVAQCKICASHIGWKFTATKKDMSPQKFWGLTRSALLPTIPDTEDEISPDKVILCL
T3 sequence (Q16531 whole entry partner): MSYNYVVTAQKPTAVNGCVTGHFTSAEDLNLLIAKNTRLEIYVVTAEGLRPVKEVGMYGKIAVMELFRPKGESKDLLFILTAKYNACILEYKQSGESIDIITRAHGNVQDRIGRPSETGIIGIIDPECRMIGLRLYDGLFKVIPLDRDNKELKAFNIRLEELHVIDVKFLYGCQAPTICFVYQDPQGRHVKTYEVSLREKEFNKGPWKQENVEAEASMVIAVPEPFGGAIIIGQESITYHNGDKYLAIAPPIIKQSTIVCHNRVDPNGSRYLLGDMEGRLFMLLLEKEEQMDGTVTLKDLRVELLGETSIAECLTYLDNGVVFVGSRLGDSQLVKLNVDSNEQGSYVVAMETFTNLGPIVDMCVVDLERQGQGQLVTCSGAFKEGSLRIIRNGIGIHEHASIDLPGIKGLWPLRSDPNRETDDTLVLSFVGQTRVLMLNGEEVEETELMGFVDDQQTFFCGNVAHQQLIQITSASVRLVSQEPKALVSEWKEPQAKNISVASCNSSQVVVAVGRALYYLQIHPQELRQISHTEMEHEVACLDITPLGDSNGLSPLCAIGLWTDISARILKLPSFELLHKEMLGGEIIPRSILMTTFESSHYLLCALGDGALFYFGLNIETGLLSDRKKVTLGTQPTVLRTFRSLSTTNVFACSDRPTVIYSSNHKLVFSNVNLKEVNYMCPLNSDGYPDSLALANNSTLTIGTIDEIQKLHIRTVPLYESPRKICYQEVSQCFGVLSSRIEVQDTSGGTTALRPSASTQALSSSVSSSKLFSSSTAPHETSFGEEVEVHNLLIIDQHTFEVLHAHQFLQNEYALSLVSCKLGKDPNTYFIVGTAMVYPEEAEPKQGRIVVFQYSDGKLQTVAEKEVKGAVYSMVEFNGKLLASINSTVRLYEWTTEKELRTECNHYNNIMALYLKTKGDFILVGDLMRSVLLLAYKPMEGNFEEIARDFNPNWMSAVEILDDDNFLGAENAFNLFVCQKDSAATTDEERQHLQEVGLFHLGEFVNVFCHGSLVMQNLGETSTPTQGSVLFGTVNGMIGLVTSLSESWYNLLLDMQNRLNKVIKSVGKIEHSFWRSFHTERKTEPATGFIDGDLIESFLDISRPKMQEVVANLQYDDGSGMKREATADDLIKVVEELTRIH
T3 sequence (Q9UKT9 whole entry): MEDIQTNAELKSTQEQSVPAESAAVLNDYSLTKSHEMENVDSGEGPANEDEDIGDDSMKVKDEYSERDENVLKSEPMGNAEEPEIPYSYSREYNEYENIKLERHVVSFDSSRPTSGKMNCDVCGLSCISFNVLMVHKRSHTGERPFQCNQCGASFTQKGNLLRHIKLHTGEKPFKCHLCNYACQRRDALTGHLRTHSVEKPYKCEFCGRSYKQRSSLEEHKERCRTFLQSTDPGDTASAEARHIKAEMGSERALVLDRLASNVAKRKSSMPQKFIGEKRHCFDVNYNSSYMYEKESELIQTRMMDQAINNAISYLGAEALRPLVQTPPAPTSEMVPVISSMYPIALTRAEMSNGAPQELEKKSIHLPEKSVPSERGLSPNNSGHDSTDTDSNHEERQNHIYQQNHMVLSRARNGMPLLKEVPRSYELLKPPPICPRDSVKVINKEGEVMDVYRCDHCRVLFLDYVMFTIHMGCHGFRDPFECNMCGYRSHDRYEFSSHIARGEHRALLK
T2 sequence (Q96SW2 whole entry): as the sequence (Q96SW2 whole entry partner) above
T2 sequence (Q16531 whole entry partner): as the sequence (Q16531 whole entry partner) above
T1 sequence (Q96SW2 whole entry partner): as the sequence (Q96SW2 whole entry partner) above
T1 sequence (Q16531 whole entry partner): as the sequence (Q16531 whole entry partner) above
T1 sequence (Q13422 whole entry): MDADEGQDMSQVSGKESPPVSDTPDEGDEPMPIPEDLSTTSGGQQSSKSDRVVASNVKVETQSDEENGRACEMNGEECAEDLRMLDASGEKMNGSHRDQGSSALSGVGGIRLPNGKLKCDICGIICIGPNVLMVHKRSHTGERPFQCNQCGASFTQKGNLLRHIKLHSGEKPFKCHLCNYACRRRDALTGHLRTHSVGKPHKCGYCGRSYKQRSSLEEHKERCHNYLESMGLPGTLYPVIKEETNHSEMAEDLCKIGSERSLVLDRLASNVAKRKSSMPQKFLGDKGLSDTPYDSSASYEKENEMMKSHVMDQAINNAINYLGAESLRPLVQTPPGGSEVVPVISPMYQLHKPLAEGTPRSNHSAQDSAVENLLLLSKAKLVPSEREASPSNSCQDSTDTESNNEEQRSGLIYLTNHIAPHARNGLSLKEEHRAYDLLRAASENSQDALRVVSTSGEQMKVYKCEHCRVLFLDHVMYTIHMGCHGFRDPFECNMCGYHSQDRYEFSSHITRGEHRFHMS
T5 sequence (Q9UKS7 whole entry): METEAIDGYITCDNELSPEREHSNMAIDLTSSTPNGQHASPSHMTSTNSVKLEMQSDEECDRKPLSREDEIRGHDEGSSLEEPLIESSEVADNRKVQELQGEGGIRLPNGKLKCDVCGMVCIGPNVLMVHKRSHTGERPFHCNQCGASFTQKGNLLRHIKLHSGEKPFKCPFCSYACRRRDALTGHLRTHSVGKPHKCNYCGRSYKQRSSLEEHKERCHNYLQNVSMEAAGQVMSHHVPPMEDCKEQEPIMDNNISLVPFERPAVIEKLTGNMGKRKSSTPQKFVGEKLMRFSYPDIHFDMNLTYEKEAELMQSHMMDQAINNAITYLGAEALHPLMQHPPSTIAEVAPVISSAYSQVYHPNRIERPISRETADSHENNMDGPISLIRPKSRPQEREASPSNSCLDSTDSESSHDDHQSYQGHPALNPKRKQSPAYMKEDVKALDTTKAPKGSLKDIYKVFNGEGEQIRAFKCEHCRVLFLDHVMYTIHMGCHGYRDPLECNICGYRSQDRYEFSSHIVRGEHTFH
T5 sequence (Q96SW2 whole entry): as the sequence (Q96SW2 whole entry partner) above
T5 sequence (Q16531 whole entry partner): as the sequence (Q16531 whole entry partner) above
T4 sequence (Q9UKS7 whole entry): as the sequence (Q9UKS7 whole entry) above
T4 sequence (Q96SW2 whole entry, further chain): as the sequence (Q96SW2 whole entry partner) above
T4 sequence (Q16531 whole entry partner): as the sequence (Q16531 whole entry partner) above

Row | Structure (SMILES) | DC50 [1] [µM] | EC50 [2] [nM] | DC50 [3] [µM] | DC50 [4] [nM] | IKZF2 % Degradation @ 1 μM [5] [%] | inhibition at 1 µM [5] [%] | inhibition at 1 µM ([3]; HEK-293T, 24 h, @ 1 μM) [%]
1 | O=C1CCC(N2Cc3cc(O[C@H]4CCCC[C@@H]4N4CC(c5ncc(C6CC6)cn5)C4)ccc3C2=O)C(=O)N1 (single isomer, unassigned) [Compound 135-B] |  | 3 | > 30 | 13 | 77.7 |  | 
2 | CC(=O)N1CCC(C2CN([C@H]3CCCC[C@@H]3Oc3ccc4c(c3)CN(C3CCC(=O)NC3=O)C4=O)C2)CC1 (stereo partly drawn) [Compound 12-A, 3-(5-(((1S,2S)-2-(3-(1-acetylpiperidin-4-yl)azetidin-1-yl)cyclohexyl)oxy)-1-oxoisoindolin-2-yl)piperidine-2,6-dione] |  | 52 | > 30 | 12 |  | 83.1 | 
3 | O=C1CCC(N2Cc3cc(O[C@H]4CCCC[C@@H]4N4CC(C5CCN(C(=O)c6ccccc6)CC5)C4)ccc3C2=O)C(=O)N1 (stereo partly drawn) [Compound 24-A, 3-(5-{[(1S,2S)-2-[3-(1-benzoylpiperidin-4-yl)azetidin-1-yl]cyclohexyl]oxy}-1-oxo-2,3-dihydro-1H-isoindol-2-yl)piperidine-2,6-dione] |  | 13 | > 30 | 6 |  | 76.7 | 
4 | CC1(C(=O)N2CCC(C3CN([C@H]4CCCC[C@@H]4Oc4ccc5c(c4)CN(C4CCC(=O)NC4=O)C5=O)C3)CC2)CCC1 (stereo partly drawn) [Compound 25-A, 3-(5-(((1S,2S)-2-(3-(1-(1-methylcyclobutane-1-carbonyl)piperidin-4-yl)azetidin-1-yl)cyclohexyl)oxy)-1-oxoisoindolin-2-yl)piperidine-2,6-dione] |  | 4 | > 30 | 1 |  | 84.4 | 
5 | CC(C)(C)OC(=O)N1CCC(C2CN([C@H]3CCCC[C@@H]3Oc3ccc4c(c3)CN(C3CCC(=O)NC3=O)C4=O)C2)CC1 (stereo partly drawn) [Compound 26-A, tert-butyl 4-(1-((1S,2S)-2-((2-(2,6-dioxopiperidin-3-yl)-1-oxoisoindolin-5-yl)oxy)cyclohexyl)azetidin-3-yl)piperidine-1-carboxylate] |  | 1 | > 30 | 1 |  | 74.7 | 
6 | CN(C)C(=O)C1CCN(c2ccc(CN3CCC(O)(c4ccc5c(c4)CN(C4CCC(=O)NC4=O)C5=O)CC3)cc2)CC1 (stereo not drawn) [Compound 41-A, 1-(4-((4-(2-(2,6-dioxopiperidin-3-yl)-1-oxoisoindolin-5-yl)-4-hydroxypiperidin-1-yl)methyl)phenyl)-N,N-dimethylpiperidine-4-carboxamide] |  | 611 | 0.456 | 482 |  | 37.4 | 18.1
7 | O=C1CCC(N2Cc3cc(O[C@H]4CCCC[C@@H]4N4CC(C5CCN(C6CCC6)CC5)C4)ccc3C2=O)C(=O)N1 (stereo partly drawn) [Compound 56-A, 3-(5-(((1S,2S)-2-(3-(1-cyclobutylpiperidin-4-yl)azetidin-1-yl)cyclohexyl)oxy)-1-oxoisoindolin-2-yl)piperidine-2,6-dione] |  | 50 | > 30 | 30 |  | 60.8 | 

The next lines start with results.

Row | DC50 [1] [µM] | EC50 [2] [nM] | DC50 [3] [µM] | DC50 [4] [nM] | IKZF2 % Degradation @ 1 μM [5] [%] | inhibition at 1 µM [5] [%] | Structure (SMILES) | inhibition at 1 µM ([3]; HEK-293T, 24 h, @ 1 μM) [%]
8 | > 30 | 31 | > 30 | > 30000 |  |  | O=C1CCC(N2Cc3cc(O[C@H]4CCCC[C@@H]4N4CC(c5cc(Cl)ccn5)C4)ccc3C2=O)C(=O)N1 (mixture of isomers) [Compound 166-B, Rac-3-(5-(((trans)-2-(3-(4-chloropyridin-2-yl)azetidin-1-yl)cyclohexyl)oxy)-1-oxoisoindolin-2-yl)piperidine-2,6-dione] | 
9 | > 30 | 48 | > 30 | > 30000 |  |  | O=C1CCC(N2Cc3cc(O[C@H]4CCCC[C@@H]4N4CC(c5cncc(Cl)c5)C4)ccc3C2=O)C(=O)N1 (mixture of isomers) [Compound 168-B, Rac-3-(5-(((trans)-2-(3-(5-chloropyridin-3-yl)azetidin-1-yl)cyclohexyl)oxy)-1-oxoisoindolin-2-yl)piperidine-2,6-dione] | 
10 | ≥ 30 | > 10000 | > 30 | > 30000 |  |  | O=C1NC(=O)C2(N3Cc4cc(O[C@@H]5CCCC[C@@H]5N5CC(c6ncc(Cl)cn6)C5)ccc4C3=O)CC1C2 (racemic) [Compound 171-B, Rac-1-(5-(((cis)-2-(3-(5-chloropyrimidin-2-yl)azetidin-1-yl)cyclohexyl)oxy)-1-oxoisoindolin-2-yl)-3-azabicyclo[3.1.1]heptane-2,4-dione] | 
11 | > 30 | > 10000 | > 30 | > 30000 |  |  | O=C1NC(=O)C2(N3Cc4cc(O[C@H]5CCCC[C@@H]5N5CC(c6ncc(Cl)cn6)C5)ccc4C3=O)CC1C2 (racemic) [Compound 172-B, Rac-1-(5-(((trans)-2-(3-(5-chloropyrimidin-2-yl)azetidin-1-yl)cyclohexyl)oxy)-1-oxoisoindolin-2-yl)-3-azabicyclo[3.1.1]heptane-2,4-dione] | 
12 | > 30 | 22 | > 30 | > 30000 |  |  | Cc1cnc(C2CN([C@H]3CCCC[C@@H]3Oc3ccc4c(c3)CN(C3CCC(=O)NC3=O)C4=O)C2)o1 (mixture of isomers) [Compound 175-B, Rac-3-(5-(((trans)-2-(3-(5-methyloxazol-2-yl)azetidin-1-yl)cyclohexyl)oxy)-1-oxoisoindolin-2-yl)piperidine-2,6-dione] | 
13 |  | 34 | > 30 | 30 | 61.4 |  | O=C1CCC(N2Cc3cc(O[C@H]4CCCC[C@H]4N4CC(c5ccncc5)C4)ccc3C2=O)C(=O)N1 (single isomer, unassigned) [Compound 136-B] | 
14 |  | 167 | > 30 | 605 |  | 31.5 | O=C1CCC(N2Cc3cc(OC4CCCCC4N4CC(c5cccnn5)C4)ccc3C2=O)C(=O)N1 (stereo not drawn) [Compound 142-B, 3-(1-oxo-5-((2-(3-(pyridazin-3-yl)azetidin-1-yl)cyclohexyl)oxy)isoindolin-2-yl)piperidine-2,6-dione] | 
15 |  | 247 | > 30 | 581 |  | 20.4 | O=C1CCC(N2Cc3cc(OC4CCCCC4N4CC(c5ccnnc5)C4)ccc3C2=O)C(=O)N1 (stereo not drawn) [Compound 143-B, 3-(1-oxo-5-((2-(3-(pyridazin-4-yl)azetidin-1-yl)cyclohexyl)oxy)isoindolin-2-yl)piperidine-2,6-dione] | 
16 |  | 22 | > 30 | 130 |  | 28.6 | O=C1CCC(N2Cc3cc(OC4CCCC4N4CC(c5ccc(C(F)(F)F)cn5)C4)ccc3C2=O)C(=O)N1 (stereo not drawn) [Compound 147-B, 3-(1-oxo-5-((2-(3-(5-(trifluoromethyl)pyridin-2-yl)azetidin-1-yl)cyclopentyl)oxy)isoindolin-2-yl)piperidine-2,6-dione] | 
17 |  | 13 | > 30 | 34 |  | < 30 | O=C1CCC(N2Cc3cc(OC4CCCC4N4CC(c5c[nH]c6ccccc56)C4)ccc3C2=O)C(=O)N1 (stereo not drawn) [Compound 181-B, 3-(5-((2-(3-(1H-indol-3-yl)azetidin-1-yl)cyclopentyl)oxy)-1-oxoisoindolin-2-yl)piperidine-2,6-dione] | 
